Measured values taken from patent US7166612B2, “Methods for reducing platelet activation platelet aggregaton or thrombosis” (Beth Israel Deaconess Medical Center, priority 2001, dated 2007).

Test system: platelets
Experiment: agonist-induced platelet granule secretion (P-selectin expression, flow cytometry)
Type: cell-based, human
Conditions: for effect on PMA-induced platelet activation: in words
Protocol: In order to assay platelet activation by cell surface marker expression, fresh PRP is isolated from donors who have not ingested aspirin for two weeks prior to donation. PRP (40 μl) is incubated with known or suspected inhibitor in DMSO or DMSO alone for 15 min. The sample is then incubated with the indicated agonist (e.g., SFLLR) for 10 min. Following incubation of the sample with the indicated agonist, 10 μl of reaction mixture is transferred to 5 μl of phycoerythrin (PE)-conjugated AC 1.2 anti-P-selectin antibody (for assessment of P-selectin surface expression) or fluorescein isothiocyanate (FITC)-conjugated PAC-1 antibody (for assessment of GPIIbIIIa activation). PBS (500 μl) is added to the sample after a 20 min incubation and the platelets are analyzed immediately by flow cytometry. Flow cytometry can be performed using, for example, a Becton-Dickinson FACSCalibur flow cytometer or its equivalent. Fluorescent channels are set at logarithmic gain. Ten thousand particles are acquired for each sample. A 530/30 band pass filter is used for FL-1 fluorescence. A 585/42 band pass filter is used for FL-2 fluorescence. FITC is measured in the FL-1 channel and PE is measured in the FL-2 channel. Data are analyzed using, for example, CellQuest software on a Macintosh PowerPC, or their equivalents. […]
Each of the compounds was tested for inhibition of platelet activation in response to the agonists SFLLR (a thrombin mimic), U46619 (a thromboxane A2 mimic), ADP and the phorbol ester PMA.
Compounds were also tested by flow cytometry for the inhibition of SFLLR-induced GPIIbIIIa activation and P-selectin expression. In these experiments, freshly obtained PRP was prepared from healthy volunteers who had not ingested aspirin for two weeks prior to donation. Forty μl of PRP was incubated with inhibitor in DMSO or DMSO alone for 15 min. The sample was then incubated with the indicated agonist for 10 min. Following incubation of the sample with the indicated agonist, 10 μl of reaction mixture was transferred to 5 μl of PE-conjugated AC1.2 anti-P-selectin antibody (for assessment of P-selectin surface expression) or FITC-conjugated PAC-1 antibody (for assessment of GPIIbIIIa activation). PBS (500 μl) was added to the sample after a 20 min incubation and the platelets were analyzed immediately by flow cytometry. Flow cytometry was performed using a Becton-Dickinson FACSCalibur flow cytometer. Fluorescent channels were set at logarithmic gain. Ten thousand particles were acquired for each sample. A 530/30 band pass filter was used for FL-1 fluorescence. A 585/42 band pass filter was used for FL-2 fluorescence. FITC was measured in the FL-1 channel and PE was measured in the FL-2 channel. Data were analyzed using CellQuest software on a MacIntosh PowerPC.
Compound was tested for its ability to inhibit SFLLR-, U46619-, ADP-, PMA-, and collagen I-induced platelet α-granule secretion. In these assays, platelets were incubated with increasing doses of compound for 30 minutes. The platelets were then exposed to a maximally stimulatory dose of the indicated agonist. P-selectin surface expression was analyzed by flow cytometry using phycoerythrin-anti-P-selectin to monitor for α-granule secretion.

CC1CC(=O)NN=C1c1ccc(N)c([N+](=O)[O-])c1 (stereo not drawn) [6-(4-Amino-3-nitro-phenyl)-5-methyl-4,5-dihydro-2H-pyridazin-3-one]
IC50s for ADP- and collagen-induced granule release less potent than SFLLR/U46619 (ADP, collagen vs SFLLR, U46619): at least 25 fold | effect on PMA-induced platelet activation (listed as Structure 8): did not inhibit | effect on PMA-induced platelet activation (listed as pyridazinone compound): No inhibition
